Key:
human ME2 = target: T1, human ME2 (Homo sapiens, UniProt P23368); assay: ME2 inhibition test; assay type: biochemical; conditions: for IC50: Table 1, 40 mM L-malate, 2 mM NAD+, 10 mM MgCl2, read-out: IC50 with respect to ME2; for inhibiting the activity of ME2 (in words): summary of Table 1
T1 construct: made in house; host or cells: Escherichia coli BL21

HL-60 cells [1] = assay: Cell survival assay; assay type: cell-based, human
Procedure: (§1) In the following assay, therefore, the NazEA dosage of 150 μM was used.

MV4-11 cells [2] = assay: Cell survival assay; assay type: cell-based, human
Procedure: as §1

THP-1 cells [3] = assay: Cell survival assay; assay type: cell-based, human
Procedure: as §1

HL-60 cells [4] = assay: Apoptosis rate (Annexin V, flow cytometer); assay type: cell-based, human; conditions: 150 μM
Procedure: (§2) HL-60 cells, THP-1 cells, and MV4-11 cells were each divided into two groups, namely a vehicle group to be cultured in an RPMI culture medium and a group to be cultured in an RPMI culture medium containing 150 μM Na2EA. After culturing for 24 hours, the culture media were renewed. After culturing for another 48 hours, a commercially available apoptosis detection kit (Annexin V Apoptosis Detection Kit) and flow cytometer were used to analyze the apoptosis rates of the cells, and the results are shown in FIG. 34. In addition, a commercially available cell viability assay kit (CellTiter-Glo® 2.0 Cell Viability Assay Kit), a NAD/NADH-Glo™ assay kit, a commercially available intracellular ROS assay kit (#cat.MAK143, Sigma-Aldrich, St. Louis, MO, USA), and a commercially available pyruvate colorimetric/fluorometric assay kit were used to analyze the NADPH, ROS, and ATP contents of each group of cells, and the results are shown in FIG. 35 to FIG. 37.

MV4-11 cells [5] = assay: Apoptosis rate (Annexin V, flow cytometer); assay type: cell-based, human; conditions: 150 μM
Procedure: as §2

THP-1 cells [6] = assay: Apoptosis rate (Annexin V, flow cytometer); assay type: cell-based, human; conditions: 150 μM
Procedure: as §2

HL-60 cells [7] = assay: Metabolite contents of AML cells (NADPH, ROS, ATP, pyruvate, NADH, glutamic acid); assay type: cell-based, human; conditions: 150 μM
Procedure: as §2
(§3) Furthermore, the cells in each group were stained with ATP-Red Live Cell Dye (BioTracker™ ATP-Red Live Cell Dye) and were observed and quantified under a fluorescence microscope, with the quantification results shown in FIG. 38. The oxygen consumption rate of each group of cells was also determined in the same way as in example 6, with the introduction of different stress testing conditions, and the results are shown in FIG. 39 to FIG. 44.
(§4) Besides, the […], pyruvate, NAD^+, NADH, and glutamic acid contents of each group of cells were analyzed with a NAD/NADH-Glo™ assay kit, a commercially available pyruvate colorimetric/fluorometric assay kit, and a commercially available Glutamine/Glutamate-Glo™ assay kit (#Cat. J8021; Promega, Madison, WI, USA) in the same way as in example 9, and the results are shown in FIG. 45 to FIG. 48.

MV4-11 cells [8] = assay: as above; assay type: cell-based, human; conditions: 150 μM
Procedure: as §2, §3, §4

THP-1 cells [9] = assay: as above; assay type: cell-based, human; conditions: 150 μM
Procedure: as §2, §3, §4

HL-60 cells [10] = assay: Oxygen consumption rate of AML cells; assay type: cell-based, human; conditions: 150 μM
THP-1 cells [11] = assay: Oxygen consumption rate of AML cells; assay type: cell-based, human; conditions: 150 μM
MV4-11 cells [12] = assay: Oxygen consumption rate of AML cells; assay type: cell-based, human; conditions: 150 μM
HL-60 cells [13] = assay: Mass spectrometric analysis of metabolic intermediates; assay type: cell-based, human; conditions: 150 μM, UPLC-MS
Procedure: The Na2EA-treated HL-60 cells (1×10^7 cells) and the HL-60 cells untreated with NazEA (1×10^7 cells) in example 10 were taken, added into 1 mL of 80% methanol, and centrifuged at 4° C. and 12,000×g for 10 minutes. After the supernatants were evaporated with nitrogen gas, an analysis was performed using a Waters ultra-high performance liquid chromatograph coupled with Waters Xevo TQ-S MS (Waters Corp. Milford, MA, USA).

THP-1 cells [14] = assay: Animal test, ASID mice transplanted with THP-1 cells; assay type: in vivo; conditions: 4 mg/kg, intravenous, day 21
Procedure: (§5) A plurality of 8-week-old ASID mice (or mice with advanced severe immunodeficiency, or more specifically NOD.Cg-Prkde^scidIl2rg^tm1Wjl/YckNarl mice) were randomly divided into 6 groups. Each group of mice was intravenously injected with one of a plurality of differently treated AML cell variants at a frequency of 5 days per week for 4 weeks. The AML cell variants injected into the 6 groups of mice are as follows: • Group 1-1: THP-1 cells • Group 2-1: THP-1 cells with EA (at a dosage of 4 mg/kg) • Group 3-1: THP-1 cells with Na2EA (at a dosage of 4 mg/kg) • Group 1-2: MV4-11 cells • Group 2-2: MV4-11 cells with EA (at a dosage of 4 mg/kg) • Group 3-2: MV4-11 cells with Na2EA (at a dosage of 4 mg/kg)
(§6) On the 21st day of the test, peripheral blood was collected from the submandibular vein of the mice, and bone marrow was collected as well. The blood and bone marrow were stained with specific markers (CD33 and CD45) and then reacted with a fluorescent antibody, before the CD33+ or CD45^+-stained cells were quantified with a flow cytometer.

MV4-11 cells [15] = assay: Animal test, ASID mice transplanted with MV4-11 cells; assay type: in vivo; conditions: 4 mg/kg, intravenous, day 21
Procedure: as §5, §6

H1299 cells [16] = assay: Pyruvate and NADPH content of treated cells; assay type: cell-based, human; conditions: 25 μM, 48 hours, 20 mM L-malate
Procedure: (§7) H1299 cells (3×10^5 cells) were cultured for 24 hours in separate culture media each containing 20 mM L-malate, with the culture environment being at 37° C. and containing 5% carbon dioxide. […]. After that, the cultured cells in each group were collected and were centrifuged in 100 μL of phosphate buffer, and the supernatants were collected. Once the proteins in the supernatants were removed, a pyruvate colorimetric/fluorometric assay kit and a PicoProbe™ NADPH quantification fluorometric assay kit were used to analyze the pyruvate content and NADPH content of the cells respectively (Ex/Em: at 535 nm and 587 nm). […]

MCF-7 cells [17] = assay: Pyruvate and NADPH content of treated cells; assay type: cell-based, human; conditions: 25 μM, 48 hours
Procedure: as §7
In addition, MCF-7 cells (6×10^5 cells) were cultured in the same way as the H1299 cells and had their pyruvate content and NADPH content analyzed.

H1299 cells [18] = assay: ATP and ROS content of treated cells; assay type: cell-based, human; conditions: 150 μM, 48 hours
Procedure: H1299 cells (3×10^5 cells) were cultured in separate culture media each containing 20 mM L-malate. […]. Also, a ROS assay kit (#cat.MAK143, Sigma-Aldrich, St. Louis, MO, USA) was used to analyze the ROS contents of the cells, and the results are shown in FIG. 8. […]

H1299 cells [19] = assay: Seahorse XF cell mito stress test (oxygen consumption rate); assay type: cell-based, human; conditions: 75 and 150 μM, 3 hours
Procedure: (§9) Finally, a Seahorse XFe24 analyzer was used to perform a Seahorse XF cell mito stress test on the cells to obtain the oxygen consumption rates (OCR) of the cells, and the test results are shown in FIG. 9 to FIG. 18. The control groups were formed by cells to which no EA or MDSA was added.

MCF-7 cells [20] = assay: as above; assay type: cell-based, human
Procedure: as §9

H1299 cells [21] = assay: Cell invasion assay (Transwell/Matrigel); assay type: cell-based, human; conditions: 150 μM, 24 hours
Procedure: (§8) […]. A culture medium containing 10% fetal bovine serum was subsequently added to the lower chambers. […] The vehicle groups, which were formed by cells to which no EA or MDSA was added, were provided to enable the calculation of the amount of the cells in each EA or MDSA-treated group in relation to the amount of the cells in the corresponding vehicle group at the end of the assay so that changes in the relative amounts of cells can be observed with ease.

MCF-7 cells [22] = assay: Cell invasion assay (Transwell/Matrigel); assay type: cell-based, human; conditions: 150 μM, 24 hours
Procedure: as §8

H1299 cells [23] = conditions: 150 μM, 48 hours
Procedure: (§10) A 24-well plate was inoculated with H1299 cells (1.5×10^5 cells) and MCF-7 cells (3.0×10^5 cells), and the cells were cultured in a 37° C. and 5% carbon dioxide environment for 24 hours in order for a confluent monolayer of cells to be formed. After that, the culture medium was removed, and the cells were washed with a phosphate buffer. […] Cell migration was observed under an automated microscope, and a quantitative analysis of cells was performed at the same time.

MCF-7 cells [24] = conditions: 150 μM, 48 hours
Procedure: as §10

T1 sequence (P23368 19-584): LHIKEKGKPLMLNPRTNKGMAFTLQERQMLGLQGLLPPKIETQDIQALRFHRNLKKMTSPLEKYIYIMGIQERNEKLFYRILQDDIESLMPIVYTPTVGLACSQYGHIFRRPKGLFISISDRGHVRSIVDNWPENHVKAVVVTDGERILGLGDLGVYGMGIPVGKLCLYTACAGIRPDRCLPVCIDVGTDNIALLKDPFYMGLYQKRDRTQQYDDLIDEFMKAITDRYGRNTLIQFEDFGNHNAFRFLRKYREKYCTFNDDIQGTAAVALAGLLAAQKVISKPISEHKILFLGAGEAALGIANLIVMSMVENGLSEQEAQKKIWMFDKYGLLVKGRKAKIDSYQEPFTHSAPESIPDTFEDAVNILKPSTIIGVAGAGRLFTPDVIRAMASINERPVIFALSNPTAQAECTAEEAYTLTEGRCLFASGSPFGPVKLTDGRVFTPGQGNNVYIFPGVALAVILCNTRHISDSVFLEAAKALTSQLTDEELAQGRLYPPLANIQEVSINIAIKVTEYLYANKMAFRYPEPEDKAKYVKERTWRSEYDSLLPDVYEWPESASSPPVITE

O=C(O)c1ccc2ccccc2c1O [1-hydroxy-2-naphthoic acid]
IC50 (human ME2): 74.7 µM
inhibiting the activity of ME2 (in words) (human ME2): relatively effective

O=C(O)c1cccc(C(=O)c2ccccc2)c1 [3-benzoyl-benzoic acid]
IC50 (human ME2): 652 µM

O=C(O)c1cc2ccccc2c(Cc2c([O-])c(C(=O)O)cc3ccccc23)c1[O-].[Na+].[Na+] [Na2EA, disodium embonate]
IC50 (HL-60 cells [1]): ~120 µM
IC50 (MV4-11 cells [2]): ~120 µM
IC50 (THP-1 cells [3]): ~120 µM
apoptosis rate (HL-60 cells [4]): 60-75%
apoptosis rate (MV4-11 cells [5]): 60-75%
apoptosis rate (THP-1 cells [6]): 60-75%
ATP content (HL-60 cells [7]): greatly reduced
NAD+/NADH ratio (HL-60 cells [7]): increased
NADH content (HL-60 cells [7]): reduced
NADPH content (HL-60 cells [7]): greatly reduced
ROS steady state (HL-60 cells [7]): destroyed
glutamic acid content (HL-60 cells [7]): increased
pyruvate content (HL-60 cells [7]): reduced
ATP content (MV4-11 cells [8]): greatly reduced
NAD+/NADH ratio (MV4-11 cells [8]): increased
NADH content (MV4-11 cells [8]): reduced
NADPH content (MV4-11 cells [8]): greatly reduced
ROS steady state (MV4-11 cells [8]): destroyed
glutamic acid content (MV4-11 cells [8]): increased
pyruvate content (MV4-11 cells [8]): reduced
ATP content (THP-1 cells [9]): greatly reduced
NAD+/NADH ratio (THP-1 cells [9]): increased
NADH content (THP-1 cells [9]): reduced
NADPH content (THP-1 cells [9]): greatly reduced
ROS steady state (THP-1 cells [9]): destroyed
glutamic acid content (THP-1 cells [9]): increased
pyruvate content (THP-1 cells [9]): reduced
mitochondrial proton leak (HL-60 cells [10]): lowered
oxygen consumption rate (HL-60 cells [10]): lowered
yield of ATP by the mitochondrial electron transport chains (HL-60 cells [10]): lowered
mitochondrial proton leak (THP-1 cells [11]): lowered
oxygen consumption rate (THP-1 cells [11]): lowered
yield of ATP by the mitochondrial electron transport chains (THP-1 cells [11]): lowered
mitochondrial proton leak (MV4-11 cells [12]): lowered
oxygen consumption rate (MV4-11 cells [12]): lowered
yield of ATP by the mitochondrial electron transport chains (MV4-11 cells [12]): lowered
fructose-6-phosphate (F-6-P) content (HL-60 cells [13]): suppress
glucose-1-phosphate (G-1-P) content (HL-60 cells [13]): suppress
glucose-6-phosphate (G-6-P) content (HL-60 cells [13]): suppress
glutamic acid content (HL-60 cells [13]): increasing
glutamine content (HL-60 cells [13]): increasing
AML cells in mice (CD33+ / CD45+ stained cells in peripheral blood and bone marrow) (THP-1 cells [14]): reduce
effectiveness in reducing AML cells compared with EA (THP-1 cells [14]): more effective in reducing AML cells than EA
AML cells in mice (CD33+ / CD45+ stained cells in peripheral blood and bone marrow) (MV4-11 cells [15]): reduce
effectiveness in reducing AML cells compared with EA (MV4-11 cells [15]): more effective in reducing AML cells than EA

O=C(O)c1ccccc1O [Salicylic acid]
IC50 (human ME2): 801 µM

O=C(O)c1cc2cc(Br)ccc2cc1O [7-bromo-3-hydroxy-2-naphthoic acid]
IC50 (human ME2): 308 µM

O=C(O)c1cc2cccc(O)c2cc1O [3,5-dihydroxy-2-naphthoic acid]
IC50 (human ME2): 12.4 µM
inhibiting the activity of ME2 (in words) (human ME2): relatively effective

O=C(O)c1cc(Cc2ccc(O)c(C(=O)O)c2)ccc1O [MDSA, 5,5′-methylenedisalicylic acid]
NADPH content (H1299 cells [16]): reduce
pyruvate content (H1299 cells [16]): reduce
NADPH content (MCF-7 cells [17]): not reduced significantly
pyruvate content (MCF-7 cells [17]): not reduced significantly
ATP content (H1299 cells [18]): lower
ROS content (H1299 cells [18]): increase
ATP generation (mitochondrial electron transport chain) (H1299 cells [19]): lowered
spare respiratory capacity (MCF-7 cells [20]): remained the same
cell invasion (H1299 cells [21]): inhibit
cell invasion (MCF-7 cells [22]): cannot inhibit

O=C(O)c1ccc2cc(C(=O)O)ccc2c1 [2,6-dicarboxy naphthalene]
IC50 (human ME2): 353 µM

O=C(O)c1cc2cc(O)ccc2cc1O [3,7-dihydroxy-2-naphthoic acid]
IC50 (human ME2): 37.6 µM

O=C(O)c1cc2ccccc2cc1O [3-hydroxy-2-naphthoic acid]
IC50 (human ME2): 105 µM
inhibiting the activity of ME2 (in words) (human ME2): relatively effective

O=C(O)c1cc2ccccc2c(Cc2c(O)c(C(=O)O)cc3ccccc23)c1O [EA, 4,4′-methylene-bis(3-hydroxy-2-naphthoic acid)]
NADPH content (H1299 cells [16]): reduce
pyruvate content (H1299 cells [16]): reduce
NADPH content (MCF-7 cells [17]): not reduced significantly
pyruvate content (MCF-7 cells [17]): not reduced significantly
ATP content (H1299 cells [18]): lower
ROS content (H1299 cells [18]): increase
ATP generation (mitochondrial electron transport chain) (H1299 cells [19]): reduced
basal respiration rate (H1299 cells [19]): reduced
maximum respiration rate (H1299 cells [19]): reduced
spare respiratory capacity (H1299 cells [19]): reduced
ATP generation (MCF-7 cells [20]): remained the same
basal respiration rate (MCF-7 cells [20]): remained the same
maximum respiration rate (MCF-7 cells [20]): remained the same
spare respiratory capacity (MCF-7 cells [20]): remained the same
cell invasion (H1299 cells [21]): inhibit
cell invasion (MCF-7 cells [22]): cannot inhibit
AML cells in mice (CD33+ / CD45+ stained cells in peripheral blood and bone marrow) (THP-1 cells [14]): reduce
AML cells in mice (CD33+ / CD45+ stained cells in peripheral blood and bone marrow) (MV4-11 cells [15]): reduce
cell migration (H1299 cells [23]): inhibit
cell migration (MCF-7 cells [24]): cannot inhibit

Reference: patent US20250120987A1, “METHOD FOR TREATING CANCER USING HUMAN MIT[…] ENZYME 2 INHIBITOR” (priority 2023, published 2025)
